Measured values as given in publication PMC6114901, “An automated screening method for detecting compounds with goitrogenic activity using transgenic zebrafish embryos” (PLoS ONE, 2018).
“Also recorded” adds a separate entry of the source.

Tested on: thyroglobulin (tg:mCherry reporter gene)
Assay: animal or person
Description: In order to avoid interference of test chemicals with early thyroid gland development, zebrafish embryos were cultured in exposure medium until 48 hours post fertilization (hpf). Subsequently, they were exposed to seven known thyroid endocrine disrupters for 3 days (48 to 120 hpf). The non-goitrogenic compound 3,4-dichloroaniline, that is used as reference compound in the zebrafish acute embryo toxicity test was used as negative control. […] No solvents were used. […] Five concentrations and one control were tested per compound and replicate. In the second replicate the range of concentration was adjusted to improve fitting of concentration-response curves. […] Given the lack of appropriate spectral properties stability of exposure concentrations was not analysed for potassium perchlorate. Embryos were kept in the incubator at 26°C and a 14:10 hours light:dark cycle. The exposure was conducted in crystallisation dishes covered with watchmaker glasses with 30 embryos in 30 ml exposure medium (for exposure medium refer to [26]).
Embryos were positioned ventrally toward the microscope objective. Per embryo a bright field image, an autofocus fluorescence image and a Z-stack of 9 images were obtained. The Z-stack was required in case of autofocus failure and manual selection of the focal plane. Fluorescence images were obtained with 400 ms of fluorescent light exposure at maximal light intensity and a gain of 1. […] However, care was taken, that at least 10 images per concentration and replicates were assessed. To avoid a time bias during the analysis the sequence of wells for analysis was arranged in order to obtain a uniform distribution over the entire period of analysis.
The images were analysed using a KNIME workflow (Version 3.3.3., [29]) with the extension “KNIME image processing”. In brief, images were loaded into the workflow and the background was removed automatically using the “rolling ball” procedure of the image J plugin (rolling ball size set to 50 pixels). Subsequently the area containing the thyroid gland was manually selected by drawing a rectangle around the appropriate region using the interactive annotation node. […] If possible the autofocus images were used. In case that the thyroid gland was out of focus due to the presence of autofluorescing pigment cells, an appropriate image from the Z-stack was selected. All subsequent steps were conducted without any user interaction. […] Finally the sum of pixel (reflecting area of the thyroid gland and intensity of fluorescence) was calculated for the labeled area and used as a proxy of fluorescence intensity (see Fig 1 for an overview of the workflow). For each replicate the sum was of pixels was normalized by setting controls to the value of one. For data of individual embryos see S4 Table. The KNIME workflow used for image analysis is provided as supplement file (S1 Workflow).
To characterize the potency of the investigated goitrogenic compounds, we calculated EC50 values of tg:mcherry fluorescence using the pixel sum obtained from image analysis. For each replicate the fluorescence intensity was normalized by dividing the mean fluorescence intensity of each concentration with the mean control fluorescence intensity. Concentration-response curves of tgmcherry fluorescence were fitted to the data using the Hill-slope equation (Eq 1) and used to estimate EC50 values.
The parameter Min was set to 1 and the slope (p) and the maximum fluorescence (Max) were estimated.

Row | Compound | effect on tg:mCherry fluorescence (zebrafish, in vivo) | Normalised mean pixel sum (0.13 µM, replicate 2) | Normalised mean pixel sum (0.493827 µM, replicate 1) | Normalised mean pixel sum (1.91 µM, replicate 2) | Normalised mean pixel sum (7.40741 µM, replicate 1) | Normalised mean pixel sum (29 µM, replicate 2) | Normalised mean pixel sum (111.111 µM, replicate 1) | Normalised mean pixel sum (430 µM, replicate 2) | Normalised mean pixel sum (1666.67 µM, replicate 1) | Normalised mean pixel sum (6455 µM, replicate 2) | Slope (Hill slope of tg:mCherry concentration-response curve) | BMD 20 (concentration at which a 20% increase of tg:mCherry fluorescence was observed) [µM] | EC50 (read-out: EC50 (tg:mCherry induction), exposure 48–120 hpf, Hill-slope model) [µM] | TDI (thyroid disruption index = LC50/EC50 tg:mCherry induction)
1 | Nc1ccc(Cl)c(Cl)c1 [3,4-DCA, 3,4-dichloroaniline] | decreased the fluorescence signal; also recorded: did not induce tg:mCherry fluorescence but led to a concentration dependent reduction in fluorescence |  |  |  |  |  |  |  |  |  |  |  |  | 
2 | [K+].[O-][Cl+3]([O-])([O-])[O-] [Potassium perchlorate, potassium perchlorate] |  | 0.90 | 1.06 | 1.30 | 0.86 | 1.75 | 1.38 | 1.97 | 2.55 | 2.16 | 0.69 | 37.6 | 137 | 241
